In ChEMBL document CHEMBL3588818 (Eur J Med Chem, 2015):

Experiments:
[1] = molecular target: T1, Vesicular acetylcholine transporter (Rattus norvegicus, UniProt Q62666); test: Displacement of (-)-[3H]vesamicol from rat VAChT expressed in PC12 cell membranes incubated for 2 hrs by liquid scintillation counting based competitive radioligand binding assay; parameters: species or system PC-12; details: read-out: Ki(app)
T1 sequence (Q62666 whole entry): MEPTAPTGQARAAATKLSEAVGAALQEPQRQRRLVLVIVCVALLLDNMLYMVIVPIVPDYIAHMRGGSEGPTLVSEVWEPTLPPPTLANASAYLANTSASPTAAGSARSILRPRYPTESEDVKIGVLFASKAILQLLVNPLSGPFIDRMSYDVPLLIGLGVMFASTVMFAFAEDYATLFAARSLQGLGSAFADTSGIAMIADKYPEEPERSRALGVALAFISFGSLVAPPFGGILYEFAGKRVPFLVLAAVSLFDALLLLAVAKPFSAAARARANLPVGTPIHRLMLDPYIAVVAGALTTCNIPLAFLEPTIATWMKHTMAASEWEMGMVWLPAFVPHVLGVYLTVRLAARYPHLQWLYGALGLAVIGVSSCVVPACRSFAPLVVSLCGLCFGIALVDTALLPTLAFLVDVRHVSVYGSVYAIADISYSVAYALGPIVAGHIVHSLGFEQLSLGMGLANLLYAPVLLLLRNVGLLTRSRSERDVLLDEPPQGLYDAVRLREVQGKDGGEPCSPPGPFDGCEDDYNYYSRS

[2] = molecular target: Sigma non-opioid intracellular receptor 1 (Rattus norvegicus, UniProt Q9R0C9); test: Displacement of […] from sigma1 receptor in Sprague-Dawley rat cortical membranes incubated for 2 hrs by liquid scintillation counting based competitive radioligand binding assay; details: read-out: Ki(app)
Sigma non-opioid intracellular receptor 1, sequence (Q9R0C9 whole entry): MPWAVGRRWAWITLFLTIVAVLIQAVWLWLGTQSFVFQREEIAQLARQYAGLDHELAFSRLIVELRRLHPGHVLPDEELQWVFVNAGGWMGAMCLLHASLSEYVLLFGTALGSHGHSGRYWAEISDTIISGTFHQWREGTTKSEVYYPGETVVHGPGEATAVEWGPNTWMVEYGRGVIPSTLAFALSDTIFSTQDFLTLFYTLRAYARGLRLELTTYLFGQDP

[3] = Displacement of [3H]DTG from sigma2 receptor in Sprague-Dawley rat liver membranes incubated for 2 hrs in presence of dextrallorphan by liquid scintillation counting based competitive radioligand binding assay; details: read-out: Ki(app)
[4] = test system: PC-12; test: Selectivity index, ratio of Ki for sigma1 receptor in Sprague-Dawley rat cortical membranes to Ki for rat VAChT expressed in PC12 cell membranes; assay type: cell-based
[5] = test system: PC-12; test: Selectivity index, ratio of Ki for sigma2 receptor in Sprague-Dawley rat liver membranes to Ki for rat VAChT expressed in PC12 cell membranes; assay type: cell-based

Row | SMILES | Ki [1] | Ki [2] | Ki [3] | Ratio Ki [4] | Ratio Ki [5]
1 | O=C(c1ccc(F)cc1)C1CCN([C@@H]2CCCC[C@H]2O)CC1 (racemic) | 3.24 µM | 0.0609 µM | 0.73 µM | < 0.1 | 0.2
2 | O[C@@H]1CC[C@@H](OCc2ccc(F)cc2)C[C@H]1N1CCC(c2ccncc2)CC1 (racemic) | 1.35 µM | 0.0264 µM | 0.0858 µM | < 0.1 | < 0.1
3 | O[C@@H]1C[C@@H](OCc2ccc(F)cc2)CC[C@H]1N1CCC(c2ccccc2)CC1 (racemic) | 2.39 µM | 0.0168 µM | 0.0671 µM | < 0.1 | < 0.1
4 | O[C@@H]1C[C@@H](OCc2ccc(F)cc2)CC[C@H]1N1CCN(c2ccccc2)CC1 (racemic) | 6.19 µM | 0.189 µM | 1.04 µM | < 0.1 | 0.2
5 | O[C@@H]1C[C@@H](OCc2ccc(F)cc2)CC[C@H]1N1CC=C(c2ccccc2)CC1 (racemic) | 2.83 µM | 0.0159 µM | 0.0555 µM | < 0.1 | < 0.1
6 | CCN(CCCc1ccccc1)[C@@H]1CC[C@H](OCc2ccc(F)cc2)C[C@H]1O (racemic) | 1.93 µM | 0.0197 µM | 0.28 µM | < 0.1 | 0.1
7 | O[C@@H]1C[C@@H](OCc2ccc(F)cc2)CC[C@H]1N1CCC(O)(c2ccccc2)CC1 (racemic) | > 10 µM | 0.031 µM | 0.254 µM |  | 
8 | CC(=O)C1(c2ccccc2)CCN([C@@H]2CC[C@H](OCc3ccc(F)cc3)C[C@H]2O)CC1 (racemic) | > 10 µM | 0.12 µM | 0.103 µM |  | 
9 | O[C@@H]1C[C@@H](OCc2ccc(F)cc2)CC[C@H]1N1CCC(c2ccccc2)(c2ccccc2)CC1 (racemic) | 2.73 µM | 0.736 µM | 5.54 µM | 0.3 | 2
10 | O[C@@H]1C[C@@H](OCc2ccc(F)cc2)CC[C@H]1N1CCC(Cc2ccccc2)CC1 (racemic) | 1.3 µM | 0.0092 µM | 0.207 µM | < 0.1 | 0.2
11 | O[C@@H]1C[C@@H](OCc2ccc(F)cc2)CC[C@H]1N1CCc2ccccc2C1 (racemic) | > 10 µM | 0.0231 µM | 0.0456 µM |  | 
12 | O[C@@H]1C[C@@H](OCc2ccc(F)cc2)CC[C@H]1N1CCC(N2CCCCC2)CC1 (racemic) | > 10 µM | 0.3 µM | 0.374 µM |  | 
13 | O=C(c1ccc(F)cc1)C1CCN([C@@H]2CC[C@H](OCc3ccc(F)cc3)C[C@H]2O)CC1 (racemic) | 5.84 µM | 0.0654 µM | 2 µM | < 0.1 | 0.3
14 | O[C@@H]1C[C@@H](OCc2ccc(F)cc2)CC[C@H]1N1CCC(c2ccncc2)CC1 (racemic) | > 10 µM | 0.0411 µM | 0.164 µM |  | 
15 | O[C@@H]1CC[C@@H](OCCCF)C[C@H]1N1CCC(c2ccccc2)CC1 (racemic) | 0.0478 µM | 0.0259 µM | 0.0882 µM | 0.5 | 1.8
16 | O[C@@H]1C[C@@H](OCCCF)CC[C@H]1N1CCC(c2ccccc2)CC1 (racemic) | 0.0596 µM | 0.0976 µM | 0.717 µM | 1.6 | 12
17 | O[C@@H]1Cc2ccccc2C[C@H]1N1CCN(c2ccccc2)CC1 (racemic) | 0.056 µM | 0.466 µM | 1.28 µM | 8.3 | 22.7
18 | O[C@@H]1Cc2ccccc2C[C@H]1N1CC=C(c2ccccc2)CC1 (racemic) |  | 0.024 µM | 0.166 µM |  | 
19 | O[C@@H]1Cc2ccccc2C[C@H]1N1CCC(O)(c2ccccc2)CC1 (racemic) | 0.0115 µM | 0.067 µM | 0.549 µM | 5.8 | 47.7
20 | O[C@@H]1Cc2ccccc2C[C@H]1N1CCC(Cc2ccccc2)CC1 (racemic) | 0.0232 µM | 0.065 µM | 0.06 µM | 2.8 | 2.6
21 | O[C@@H]1Cc2ccccc2C[C@H]1N1CCC(N2CCCCC2)CC1 (racemic) | 0.112 µM | 0.248 µM | 0.161 µM | 2.2 | 1.4
22 | O[C@@H]1Cc2ccccc2C[C@H]1N1CCC(c2ccncc2)CC1 (racemic) | 0.0193 µM | 0.0089 µM | 0.258 µM | 0.5 | 13.4
23 | Nc1cccc2c1C[C@@H](O)[C@H](N1CCC(c3ccccc3)CC1)C2 (racemic) | 0.339 µM | 0.0553 µM | 0.726 µM | 0.2 | 2.1

Row | SMILES | Ki [1] | Ki [2] | Ki [3] | Ratio Ki [4] | Ratio Ki [5]
24 | O=C(Nc1cccc2c1C[C@@H](O)[C@H](N1CCC(Cc3ccccc3)CC1)C2)c1ccc(F)cc1 (racemic) | > 10 µM | 0.296 µM | 2.11 µM |  | 
25 | CC(=O)C1(c2ccccc2)CCN([C@@H]2CCCC[C@H]2O)CC1 (racemic) | 1.46 µM | 0.0225 µM | 0.164 µM | < 0.1 | 0.1
26 | O[C@@H]1CCCC[C@H]1N1CCC(c2ccccc2)(c2ccccc2)CC1 (racemic) | 6.71 µM | 0.0432 µM | 1.83 µM | < 0.1 | 0.3
27 | O[C@@H]1CCCC[C@H]1N1CCC(Cc2ccccc2)CC1 (racemic) | 0.647 µM | 0.0201 µM | 0.108 µM | < 0.1 | 0.2
28 | O[C@@H]1CCCC[C@H]1N1CCc2ccccc2C1 (racemic) |  | 0.0543 µM | 0.809 µM |  | 
29 | O[C@@H]1CCCC[C@H]1N1CCC(N2CCCCC2)CC1 (racemic) | 5.11 µM | > 1 µM | 4.71 µM |  | 
30 | O[C@@H]1CCCC[C@H]1N1CCC(c2ccncc2)CC1 (racemic) | 3.38 µM | > 1 µM | 3.32 µM |  | 
31 | O[C@@H]1CC[C@@H](OCc2ccc(F)cc2)C[C@H]1N1CCC(c2ccccc2)CC1 (racemic) | 0.0251 µM | 0.0166 µM | 0.0531 µM | 0.7 | 2.1
32 | O[C@@H]1CC[C@@H](OCc2ccc(F)cc2)C[C@H]1N1CCN(c2ccccc2)CC1 (racemic) | 0.697 µM | 0.103 µM | 0.167 µM | 0.2 | 0.24
33 | O[C@@H]1CC[C@@H](OCc2ccc(F)cc2)C[C@H]1N1CC=C(c2ccccc2)CC1 (racemic) | 0.31 µM | 0.0299 µM | 0.0469 µM | < 0.1 | 0.2
34 | CCN(CCCc1ccccc1)[C@@H]1C[C@H](OCc2ccc(F)cc2)CC[C@H]1O (racemic) | 1.61 µM | 0.0105 µM | 0.109 µM |  | < 0.1
35 | O[C@@H]1CC[C@@H](OCc2ccc(F)cc2)C[C@H]1N1CCC(O)(c2ccccc2)CC1 (racemic) | 0.316 µM | 0.0473 µM | 0.134 µM | 0.2 | 0.4
36 | CC(=O)C1(c2ccccc2)CCN([C@@H]2C[C@H](OCc3ccc(F)cc3)CC[C@H]2O)CC1 (racemic) | 0.26 µM | 0.0631 µM | 0.0188 µM | 0.2 | < 0.1
37 | O[C@@H]1CC[C@@H](OCc2ccc(F)cc2)C[C@H]1N1CCC(c2ccccc2)(c2ccccc2)CC1 (racemic) | 0.603 µM | 0.456 µM | 2.36 µM | 0.8 | 3.9
38 | O[C@@H]1CC[C@@H](OCc2ccc(F)cc2)C[C@H]1N1CCC(Cc2ccccc2)CC1 (racemic) | 0.11 µM | 0.0252 µM | 0.0618 µM | 0.2 | 0.6
39 | O[C@@H]1CC[C@@H](OCc2ccc(F)cc2)C[C@H]1N1CCc2ccccc2C1 (racemic) | 4.67 µM | 0.059 µM | 0.0459 µM | < 0.1 | < 0.1
40 | O[C@@H]1CC[C@@H](OCc2ccc(F)cc2)C[C@H]1N1CCC(N2CCCCC2)CC1 (racemic) | 4.79 µM | 0.553 µM | 0.543 µM | 0.1 | 0.1
41 | O=C(c1ccc(F)cc1)C1CCN([C@@H]2C[C@H](OCc3ccc(F)cc3)CC[C@H]2O)CC1 (racemic) | 1.03 µM | 0.0594 µM | 0.64 µM | < 0.1 | 0.6
42 | CCN(CCCc1ccccc1)[C@@H]1CCCC[C@H]1O (racemic) | > 10 µM | 0.115 µM | 0.652 µM |  | 
43 | O[C@@H]1Cc2cccc(OCCF)c2C[C@H]1N1CCC(c2ccccc2)CC1 (racemic) |  |  |  | 10.7 | 
44 | O[C@@H]1Cc2ccccc2C[C@H]1N1CCC(c2ccccc2)CC1 (racemic) [BENZOVESAMICOL] |  | 0.0261 µM | 0.0964 µM |  | 
45 | O[C@@H]1CCCC[C@H]1N1CCC(c2ccccc2)CC1 (racemic) [VESAMICOL] |  |  | 0.112 µM |  | 
